# Measured values: ChEMBL document CHEMBL3351815, “Synthesis of fluorinated agonist of sphingosine-1-phosphate receptor 1” (Bioorg Med Chem, 2014)
# pIC50: −log10 of the molar value. Activity calls are given as the source filed them. The calls are words filed in the database; no cut-off is given here.
# Tests used:
# [1] = target: Sphingosine 1-phosphate receptor 1 (Homo sapiens) (UniProt P21453); assay: Agonist activity at S1P receptor in human PC3 cells assessed as increase in proliferation at 100 nM after 24 hrs by [3H]-thymidine incorporation assay; assay type: cell-based; conditions: PC-3
# Sequence of Sphingosine 1-phosphate receptor 1 (Homo sapiens) (P21453 whole entry): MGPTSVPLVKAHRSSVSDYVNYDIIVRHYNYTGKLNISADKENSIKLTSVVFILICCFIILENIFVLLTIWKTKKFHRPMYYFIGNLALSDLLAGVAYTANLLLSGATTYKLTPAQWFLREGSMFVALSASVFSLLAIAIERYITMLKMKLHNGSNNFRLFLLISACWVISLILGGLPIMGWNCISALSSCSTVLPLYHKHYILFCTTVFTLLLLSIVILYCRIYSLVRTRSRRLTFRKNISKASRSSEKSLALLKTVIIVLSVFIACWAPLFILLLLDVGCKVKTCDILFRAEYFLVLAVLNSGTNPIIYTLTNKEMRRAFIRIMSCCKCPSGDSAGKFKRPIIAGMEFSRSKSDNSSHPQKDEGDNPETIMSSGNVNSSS
# [2] = target: Sphingosine 1-phosphate receptor 1 (Homo sapiens) (UniProt P21453); assay: Agonist activity at S1P receptor in human C4-2B cells assessed as increase in proliferation at 100 nM after 24 hrs by [3H]-thymidine incorporation assay; assay type: cell-based
# [3] = Antiproliferative activity against human PC3 cells assessed as reduction in proliferation after 24 hrs by [3H]-thymidine incorporation assay; assay type: functional, cell-based; conditions: PC-3
# [4] = Antiproliferative activity against human C4-2B cells assessed as reduction in proliferation after 24 hrs by [3H]-thymidine incorporation assay; assay type: functional, cell-based; conditions: LNCaP C4-2B
# [5] = tested on: PC-3; assay: Antiproliferative activity against human PC3 cells assessed as reduction in proliferation at 1 to 10 uM after 24 hrs by MTT assay; assay type: functional, cell-based
# [6] = tested on: LNCaP C4-2B; assay: Antiproliferative activity against human C4-2B cells assessed as reduction in proliferation at 1 to 100 uM after 24 hrs by MTT assay; assay type: functional, cell-based
SMILES,Activity [1],Activity [2],pIC50 [3],pIC50 [4],inhibition [5],inhibition [6]
CCCCCCCCc1ccc(CCC(N)CC(F)(F)P(=O)(O)O)cc1 (stereo not given),inactive,inactive,4.70,5.52,Active,Active
CCCCCCCCc1ccc(CCC(N)(CO)COP(=O)(O)O)cc1 (stereo not given),Active,Active,–,–,–,–
CCCCCCCCCCCCC/C=C/[C@@H](O)[C@@H](N)COP(=O)(O)O,Active,Active,–,–,–,–
